Results taken from the NIST ThermoML archive (doi:10.1016/j.tca.2012.05.004).

Assay: xn = mol fraction of the nth substance listed
Conditions: 101.3 kPa, Liquid, Vibrating tube method

ClCCCl [1,2-dichloroethane] + CC(C)O
mass density [kg/m3]
Conditions | 288.15 K | 293.15 K | 298.15 K | 303.15 K | 308.15 K | 313.15 K
x2 = 0.05 | 1235.82 | 1228.61 | 1221.38 | 1214.13 | 1206.71 | 1199.46
x2 = 0.1004 | 1211.74 | 1204.56 | 1197.38 | 1190.17 | 1182.93 | 1175.66
x2 = 0.1497 | 1188.26 | 1181.19 | 1174.09 | 1166.95 | 1159.78 | 1152.57
x2 = 0.2 | 1164.61 | 1157.64 | 1150.63 | 1143.59 | 1136.5 | 1129.37
x2 = 0.25 | 1141.22 | 1134.37 | 1127.47 | 1120.53 | 1113.54 | 1106.5
x2 = 0.3002 | 1117.88 | 1111.14 | 1104.37 | 1097.54 | 1090.67 | 1083.74
x2 = 0.3502 | 1094.71 | 1088.11 | 1081.46 | 1074.76 | 1068 | 1061.19
x2 = 0.4001 | 1071.46 | 1065.13 | 1058.72 | 1052.15 | 1045.52 | 1038.83
x2 = 0.4503 | 1048.29 | 1042.07 | 1035.7 | 1029.28 | 1022.79 | 1016.23
x2 = 0.4996 | 1025.41 | 1019.32 | 1013.1 | 1006.83 | 1000.49 | 994.079
x2 = 0.5502 | 1002 | 996.011 | 989.957 | 983.831 | 977.648 | 971.39
x2 = 0.6 | 978.769 | 972.943 | 967.056 | 961.099 | 955.079 | 948.987
x2 = 0.6498 | 955.713 | 950.066 | 944.351 | 938.562 | 932.714 | 926.783
x2 = 0.7 | 932.242 | 926.773 | 921.244 | 915.641 | 909.966 | 904.209
x2 = 0.75 | 908.934 | 903.601 | 898.262 | 892.85 | 887.36 | 881.789
x2 = 0.7996 | 885.608 | 880.568 | 875.378 | 870.212 | 864.918 | 859.549
x2 = 0.8495 | 861.973 | 857.114 | 852.182 | 847.228 | 842.144 | 836.984
x2 = 0.8998 | 837.957 | 833.329 | 828.632 | 823.858 | 819.006 | 814.085
x2 = 0.9497 | 813.892 | 809.502 | 805.032 | 800.505 | 795.891 | 791.195

ClCCCl [1,2-dichloroethane] + CCC(C)O
mass density [kg/m3]
Conditions | 288.15 K | 293.15 K | 298.15 K | 303.15 K | 308.15 K | 313.15 K
x2 = 0.0503 | 1231.77 | 1224.62 | 1217.45 | 1210.25 | 1203.02 | 1195.77
x2 = 0.0999 | 1204.93 | 1197.88 | 1190.8 | 1183.69 | 1176.55 | 1169.4
x2 = 0.1498 | 1179.01 | 1172.06 | 1165.09 | 1158.09 | 1151.05 | 1143.99
x2 = 0.1999 | 1153.69 | 1146.88 | 1140.03 | 1133.14 | 1126.22 | 1119.27
x2 = 0.2505 | 1128.43 | 1121.76 | 1115.05 | 1108.3 | 1101.51 | 1094.68
x2 = 0.2963 | 1106.34 | 1099.8 | 1093.22 | 1086.6 | 1079.94 | 1073.22
x2 = 0.3503 | 1080.63 | 1074.29 | 1067.22 | 1061.5 | 1055.06 | 1048.25
x2 = 0.3995 | 1057.91 | 1051.71 | 1045.45 | 1039.11 | 1032.79 | 1026.29
x2 = 0.4501 | 1034.98 | 1028.92 | 1022.81 | 1016.66 | 1010.45 | 1004.19
x2 = 0.4993 | 1013.03 | 1007.13 | 1001.19 | 995.186 | 989.131 | 983.023
x2 = 0.5486 | 991.648 | 985.947 | 980.168 | 974.12 | 968.223 | 962.22
x2 = 0.6 | 969.557 | 963.995 | 958.381 | 952.707 | 946.966 | 941.176
x2 = 0.6493 | 948.744 | 943.35 | 937.897 | 932.387 | 926.811 | 921.174
x2 = 0.6999 | 928.023 | 922.806 | 917.532 | 912.188 | 906.776 | 901.308
x2 = 0.7499 | 907.77 | 902.736 | 897.63 | 892.466 | 887.227 | 881.93
x2 = 0.7998 | 887.96 | 883.21 | 878.173 | 873.288 | 868.11 | 863.093
x2 = 0.8498 | 868.538 | 863.861 | 859.123 | 854.308 | 849.413 | 844.444
x2 = 0.8997 | 849.217 | 844.779 | 840.238 | 835.615 | 830.908 | 826.085
x2 = 0.95 | 829.951 | 825.697 | 821.349 | 816.932 | 812.451 | 807.826

CCCCC(C)O (stereo unspecified) [2-hexanol] + ClCCCl
mass density [kg/m3]
Conditions | 288.15 K | 293.15 K | 298.15 K | 303.15 K | 308.15 K | 313.15 K
x1 = 0.0502 | 1223.08 | 1216.04 | 1208.98 | 1201.9 | 1194.78 | 1187.63
x1 = 0.0999 | 1188.97 | 1182.13 | 1175.27 | 1168.37 | 1161.45 | 1154.5
x1 = 0.1504 | 1157.18 | 1150.56 | 1143.9 | 1137.21 | 1130.49 | 1123.74
x1 = 0.2001 | 1126.22 | 1120.72 | 1114.91 | 1108.44 | 1101.9 | 1095.33
x1 = 0.2498 | 1099.98 | 1093.76 | 1087.5 | 1081.2 | 1074.85 | 1068.47
x1 = 0.2995 | 1073.96 | 1068.01 | 1061.96 | 1055.85 | 1049.7 | 1043.51
x1 = 0.3499 | 1048.88 | 1043.06 | 1037.18 | 1031.25 | 1025.28 | 1019.26
x1 = 0.3999 | 1025.35 | 1019.69 | 1013.99 | 1008.24 | 1002.45 | 996.615
x1 = 0.45 | 1003.14 | 997.678 | 992.164 | 986.594 | 980.978 | 975.219
x1 = 0.4994 | 982.243 | 976.929 | 971.582 | 966.175 | 960.716 | 955.218
x1 = 0.5501 | 961.948 | 956.802 | 951.619 | 946.386 | 941.113 | 935.792
x1 = 0.5999 | 942.875 | 937.885 | 932.861 | 927.787 | 922.674 | 917.511
x1 = 0.6498 | 924.759 | 919.925 | 915.048 | 910.129 | 905.161 | 900.15
x1 = 0.6995 | 907.657 | 903.05 | 898.319 | 893.543 | 888.715 | 883.843
x1 = 0.7499 | 891.009 | 886.457 | 881.863 | 877.224 | 872.535 | 867.8
x1 = 0.8004 | 874.928 | 870.513 | 866.056 | 861.55 | 856.996 | 852.392
x1 = 0.8499 | 859.958 | 855.674 | 851.345 | 846.966 | 842.537 | 838.058
x1 = 0.8998 | 845.485 | 841.327 | 837.125 | 832.874 | 828.565 | 824.204
x1 = 0.9482 | 831.995 | 827.968 | 823.889 | 819.755 | 815.567 | 811.322

CCCCCCC(C)O (stereo unspecified) [2-octanol] + ClCCCl
mass density [kg/m3]
Conditions | 288.15 K | 293.15 K | 298.15 K | 303.15 K | 308.15 K | 313.15 K
x1 = 0.0499 | 1215.16 | 1208.22 | 1201.27 | 1194.29 | 1187.27 | 1180.23
x1 = 0.1 | 1175.12 | 1168.45 | 1161.76 | 1155.05 | 1148.31 | 1141.54
x1 = 0.1503 | 1139.01 | 1132.67 | 1126.33 | 1119.85 | 1113.38 | 1106.89
x1 = 0.2006 | 1106.43 | 1100.33 | 1094.18 | 1087.99 | 1081.76 | 1075.51
x1 = 0.2498 | 1077.37 | 1071.56 | 1065.66 | 1059.71 | 1053.73 | 1047.71
x1 = 0.3 | – | – | – | – | 1027.49 | –
x1 = 0.3002 | 1050.06 | 1044.59 | 1038.96 | 1033.26 | – | 1021.69
x1 = 0.35 | 1025.54 | 1020.16 | 1014.7 | 1009.18 | 1003.62 | 998.027
x1 = 0.3999 | 1002.85 | 997.633 | 992.342 | 987.014 | 981.649 | 976.252
x1 = 0.4499 | 981.685 | 976.658 | 971.558 | 966.415 | 961.229 | 956.01
x1 = 0.4999 | 962.134 | 957.22 | 952.273 | 947.296 | 942.282 | 937.233
x1 = 0.5503 | 943.764 | 939.011 | 934.225 | 929.407 | 924.551 | 919.661
x1 = 0.5992 | 927.273 | 922.663 | 918.023 | 913.351 | 908.639 | 903.897
x1 = 0.6492 | 911.359 | 906.886 | 902.382 | 897.844 | 893.27 | 888.66
x1 = 0.6989 | 896.738 | 892.39 | 888.013 | 883.603 | 879.157 | 874.674
x1 = 0.7503 | 882.325 | 878.102 | 873.846 | 869.558 | 865.235 | 860.873
x1 = 0.7989 | 869.78 | 865.66 | 861.514 | 857.336 | 853.118 | 848.865
x1 = 0.8497 | 857.292 | 853.282 | 849.241 | 845.167 | 841.058 | 836.912
x1 = 0.899 | 845.686 | 841.775 | 837.835 | 833.858 | 829.849 | 825.799
x1 = 0.9492 | 834.672 | 830.858 | 827.012 | 823.127 | 819.211 | 815.252
